Read-outs that look alike come from different tables or passages of the source.
Columns and labels:
[1] = target: T1, recombinant human Lp-PLA2 (Homo sapiens, UniProt Q13093); assay: Recombinant human Lp-PLA2 assay (rhLp-PLA2, PED6 assay); type: biochemical
T1 sequence (Q13093 22-441): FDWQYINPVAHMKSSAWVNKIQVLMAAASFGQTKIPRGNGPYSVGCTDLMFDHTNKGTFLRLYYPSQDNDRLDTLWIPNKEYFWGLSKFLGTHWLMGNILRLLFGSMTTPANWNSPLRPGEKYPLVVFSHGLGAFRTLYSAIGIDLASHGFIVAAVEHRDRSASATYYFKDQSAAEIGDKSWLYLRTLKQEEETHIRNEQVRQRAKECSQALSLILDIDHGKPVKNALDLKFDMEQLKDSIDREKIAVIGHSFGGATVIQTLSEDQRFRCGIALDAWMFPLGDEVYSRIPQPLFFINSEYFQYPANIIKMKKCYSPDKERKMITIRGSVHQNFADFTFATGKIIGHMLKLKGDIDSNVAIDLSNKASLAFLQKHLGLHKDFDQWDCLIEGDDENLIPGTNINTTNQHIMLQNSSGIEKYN
Description: (1) Recombinant Human Lp-PLA2 Assay (rhLp-PLA2) (Also Referred to as “PED6” Assay)
N-((6-(2,4-dinitrophenyl)amino)-hexanoyl)-2-(4,4-difluoro-5,7-dimethyl-4-bora-3a,4a-diaza-s-indacene-3-pentanoyl)-1-hexadecanoyl-sn-glycero-3-phosphoethanolamine, triethylammonium salt (PED6) is a commercially available fluorescently-labeled phospholipid, which is commercially available from Invitrogene and Molecular Probes. There is a quenching para-nitro phenyl (PNP) group in the sn3 position and a Bodipy fluorescein (FL) group in the sn2 position. Upon cleavage with Lp-PLA2, the Bodipy FL group is liberated and then may result in an increase in fluorescence. Inhibitors of Lp-PLA2 therefore prevent this cleavage and no fluorescent increase is observed.
The PED6 assay was run as an unquenched 10 μL assay. The source plate containing the compounds to be tested was prepared by making 1:3 (by volume) serial dilution of the compounds within DMSO on 384-well microplate. Then, 0.01 μL of the compounds on compound source plate were transferred into 384 well Greiner 784076 (black) plates using ECHO liquid dispenser. 5 μL of recombinant human Lp-PLA2 enzyme (4 nM (or 110 pM) rhLp-PLA2 in assay buffer of 50 mM HEPES, pH 7.4, 150 mM NaCl, 1 mM CHAPS) was added to each well of the plate. Plates were centrifuged for 10 sec at 500 rpm. After 30 minutes preincubation, 5 μL of substrate (4 μM (or 5 μM) PED6 [from 5 mM DMSO stock] in assay buffer of 50 mM HEPES, pH 7.4, 150 mM NaCl, 1 mM CHAPS) was added to 384 well Greiner 784076 (black) plates. Plates were centrifuged for 10 sec at 500 rpm. The plate was covered to protect it from light and incubated for 20 min at room temperature. The plates were read for fluorescence intensity at ex: 480/em: 540 using ViewLux microplate imager for Envision spectrofluroimeters. pIC50 data, curve and QC analysis was conducted by using XL fit module in Excel.

[2] = target: T2, Lp-PLA2 in human plasma (Homo sapiens, UniProt Q13093); assay: Lp-PLA2 human plasma assay (Thio-PAF assay); type: biochemical; details: pooled human plasma; read-out: pIC50 values in the thio-PAF assay (converted)
T2 construct: from tissue; host or cells: pooled human plasma
T2 sequence (Q13093 22-441): T1 sequence (Q13093 22-441)
How it was run: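 Pooled human plasma preincubated 30 min with compound, then 2-thio-PAF substrate added with CPM and NEM in 50 mM HEPES pH 7.4, 150 mM NaCl, 1 mM CHAPS. Quenched with TFA after 2 min, incubated 40 min at room temperature, and read by fluorescence at ex 380/em 485 nm. Values given as pIC50.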

[3] = read-out: pIC50 values in the recombinant human Lp-PLA2 assay (converted)
[4] = read-out: rhLp-PLA2 (PED6 assay) (pIC50) (converted)

| Compound | IC50 [1, 3] | IC50 [2] | IC50 [1, 4] |
| --- | --- | --- | --- |
| C[C@H]1CCn2c(cc(OCc3cc(F)c(Oc4ccc(F)cc4)c(F)c3)nc2=O)N1C [E94, (S)-8-((3,5-difluoro-4-(4-fluorophenoxy)benzyl)oxy)-1,2-dimethyl-3,4-dihydro-1H-pyrimido[1,6-a]pyrimidin-6(2H)-one] | ≤ 1 nM | ≤ 100 nM |  |
| C[C@H]1CCn2c(cc(OCc3cc(F)c(Oc4ccc(Cl)cc4)c(F)c3)nc2=O)N1C [E95, (S)-8-((4-(4-chlorophenoxy)-3,5-difluorobenzyl)oxy)-1,2-dimethyl-3,4-dihydro-1H-pyrimido[1,6-a]pyrimidin-6(2H)-one] | ≤ 1 nM | ≤ 100 nM |  |
| C[C@H]1CCn2c(cc(OCc3cc(F)c(Oc4cccc(F)c4)c(F)c3)nc2=O)N1C [E96] | ≤ 1 nM | ≤ 100 nM |  |
| C[C@@H]1CCn2c(cc(OCc3cc(F)c(Oc4cnc(C(F)(F)F)nc4)c(F)c3)nc2=O)N1C [E97, (R)-8-((3,5-difluoro-4-((2-(trifluoromethyl)pyrimidin-5-yl)oxy)benzyl)oxy)-1,2-dimethyl-3,4-dihydro-1H-pyrimido[1,6-a]pyrimidin-6(2H)-one] | ≤ 1 nM | ≤ 10 nM | 0.1 nM |
| C[C@H]1CCn2c(cc(OCc3ccc(Oc4cccc(C(F)(F)F)c4)c(C#N)c3)nc2=O)N1C [E98, (S)-5-(((1,2-dimethyl-6-oxo-2,3,4,6-tetrahydro-1H-pyrimido[1,6-a]pyrimidin-8-yl)oxy)methyl)-2-(3-(trifluoromethyl)phenoxy)benzonitrile] | ≤ 1 nM | ≤ 10 nM |  |
| C[C@H]1CCn2c(cc(OCc3ccc(Oc4ccc(F)c(F)c4)c(C#N)c3)nc2=O)N1C [E99, (S)-2-(3,4-difluorophenoxy)-5-(((1,2-dimethyl-6-oxo-2,3,4,6-tetrahydro-1H-pyrimido[1,6-a]pyrimidin-8-yl)oxy)methyl)benzonitrile] | ≤ 1 nM | ≤ 10 nM |  |
| C[C@@H]1CCn2c(cc(OCc3cc(F)c(Oc4ccc(F)c(F)c4)c(F)c3)nc2=O)N1C [E101, (R)-8-((4-(3,4-difluorophenoxy)-3,5-difluorobenzyl)oxy)-1,2-dimethyl-3,4-dihydro-1H-pyrimido[1,6-a]pyrimidin-6(2H)-one] | ≤ 1 nM | ≤ 10 nM |  |
| C[C@@H]1CCn2c(cc(OCc3ccc(Oc4cccc(F)c4)c(C#N)c3)nc2=O)N1C [E102, (R)-5-(((1,2-dimethyl-6-oxo-2,3,4,6-tetrahydro-1H-pyrimido[1,6-a]pyrimidin-8-yl)oxy)methyl)-2-(3-fluorophenoxy)benzonitrile] | ≤ 1 nM | ≤ 10 nM |  |
| C[C@@H]1CCn2c(cc(OCc3cc(F)c(Oc4cccc(F)c4)c(F)c3)nc2=O)N1C [E103, (R)-8-((3,5-difluoro-4-(3-fluorophenoxy)benzyl)oxy)-1,2-dimethyl-3,4-dihydro-1H-pyrimido[1,6-a]pyrimidin-6(2H)-one] | ≤ 1 nM | ≤ 100 nM |  |
| C[C@H]1CCn2c(cc(OCc3cc(F)c(Oc4cnc(C(F)(F)F)nc4)c(F)c3)nc2=O)N1C [E104, (S)-8-((3,5-difluoro-4-((2-(trifluoromethyl)pyrimidin-5-yl)oxy)benzyl)oxy)-1,2-dimethyl-3,4-dihydro-1H-pyrimido[1,6-a]pyrimidin-6(2H)-one] | ≤ 1 nM | ≤ 100 nM |  |
| C[C@H]1CCn2c(cc(OCc3ccc(Oc4ccc(C(F)(F)F)c(F)c4)cc3)nc2=O)N1C [E105, (S)-8-((4-(3-fluoro-4-(trifluoromethyl)phenoxy)benzyl)oxy)-1,2-dimethyl-3,4-dihydro-1H-pyrimido[1,6-a]pyrimidin-6(2H)-one] | ≤ 1 nM | ≤ 100 nM |  |
| C[C@H]1CCn2c(cc(OCc3cc(F)c(Oc4ccc(F)c(Cl)c4)c(F)c3)nc2=O)N1C [E106, (S)-8-((4-(3-chloro-4-fluorophenoxy)-3,5-difluorobenzyl)oxy)-1,2-dimethyl-3,4-dihydro-1H-pyrimido[1,6-a]pyrimidin-6(2H)-one] | ≤ 1 nM | ≤ 100 nM |  |
| C[C@H]1CCn2c(cc(OCc3ccc(Oc4cnc(C(F)(F)F)nc4)c(F)c3)nc2=O)N1C [E107, (S)-8-((3-fluoro-4-((2-(trifluoromethyl)pyrimidin-5-yl)oxy)benzyl)oxy)-1,2-dimethyl-3,4-dihydro-1H-pyrimido[1,6-a]pyrimidin-6(2H)-one] | ≤ 1 nM | ≤ 100 nM | 0.398 nM |
| C[C@@H]1CCn2c(cc(OCc3ccc(Oc4ccc(C(F)(F)F)c(F)c4)cc3)nc2=O)N1C [E108, (R)-8-((4-(3-fluoro-4-(trifluoromethyl)phenoxy)benzyl)oxy)-1,2-dimethyl-3,4-dihydro-1H-pyrimido[1,6-a]pyrimidin-6(2H)-one] | ≤ 1 nM | ≤ 100 nM |  |
| C[C@@H]1CCn2c(cc(OCc3cc(F)c(Oc4ccc(F)c(Cl)c4)c(F)c3)nc2=O)N1C [E109] | ≤ 1 nM | ≤ 10 nM |  |
| C[C@@H]1CCn2c(cc(OCc3ccc(Oc4cnc(C(F)(F)F)nc4)c(F)c3)nc2=O)N1C [E110, (R)-8-((3-fluoro-4-((2-(trifluoromethyl)pyrimidin-5-yl)oxy)benzyl)oxy)-1,2-dimethyl-3,4-dihydro-1H-pyrimido[1,6-a]pyrimidin-6(2H)-one] | ≤ 1 nM | ≤ 100 nM | 0.631 nM |
| CN1c2cc(OCc3ccc(Oc4ccc(F)c(F)c4)c(C#N)c3)nc(=O)n2CCC1(C)C [E111, 2-(3,4-difluorophenoxy)-5-(((1,2,2-trimethyl-6-oxo-2,3,4,6-tetrahydro-1H-pyrimido[1,6-a]pyrimidin-8-yl)oxy)methyl)benzonitrile] | ≤ 1 nM | ≤ 10 nM |  |
| CN1c2cc(OCc3ccc(Oc4ccc(C(F)(F)F)nc4)c(C#N)c3)nc(=O)n2CCC1(C)C [E112, 2-((6-(trifluoromethyl)pyridin-3-yl)oxy)-5-(((1,2,2-trimethyl-6-oxo-2,3,4,6-tetrahydro-1H-pyrimido[1,6-a]pyrimidin-8-yl)oxy)methyl)benzonitrile] | ≤ 1 nM | ≤ 10 nM |  |
| C[C@H]1CCn2c(cc(OCc3ccc(Oc4ccc(C(F)(F)F)nc4)c(C#N)c3)nc2=O)N1C [E113, (S)-5-(((1,2-dimethyl-6-oxo-2,3,4,6-tetrahydro-1H-pyrimido[1,6-a]pyrimidin-8-yl)oxy)methyl)-2-((6-(trifluoromethyl)pyridin-3-yl)oxy)benzonitrile] | ≤ 1 nM | ≤ 100 nM |  |
| C[C@@H]1CCn2c(cc(OCc3ccc(Oc4ccc(F)c(F)c4)c(C#N)c3)nc2=O)N1C [E114, (R)-2-(3,4-difluorophenoxy)-5-(((1,2-dimethyl-6-oxo-2,3,4,6-tetrahydro-1H-pyrimido[1,6-a]pyrimidin-8-yl)oxy)methyl)benzonitrile] | ≤ 1 nM | ≤ 10 nM |  |
| C[C@@H]1CCn2c(cc(OCc3ccc(Oc4ccc(C(F)(F)F)nc4)c(C#N)c3)nc2=O)N1C [E115, (R)-5-(((1,2-dimethyl-6-oxo-2,3,4,6-tetrahydro-1H-pyrimido[1,6-a]pyrimidin-8-yl)oxy)methyl)-2-((6-(trifluoromethyl)pyridin-3-yl)oxy)benzonitrile] | ≤ 1 nM | ≤ 10 nM |  |
| CN1c2cc(OCc3ccc(Oc4ccc(F)c(C(F)(F)F)c4)c(C#N)c3)nc(=O)n2CCC1(C)C [E116, 2-(4-fluoro-3-(trifluoromethyl)phenoxy)-5-(((1,2,2-trimethyl-6-oxo-2,3,4,6-tetrahydro-1H-pyrimido[1,6-a]pyrimidin-8-yl)oxy)methyl)benzonitrile] | ≤ 1 nM | ≤ 10 nM |  |
| CN1c2cc(OCc3ccc(Oc4cccc(F)c4)c(C#N)c3)nc(=O)n2CCC1(C)C [E117, 2-(3-fluorophenoxy)-5-(((1,2,2-trimethyl-6-oxo-2,3,4,6-tetrahydro-1H-pyrimido[1,6-a]pyrimidin-8-yl)oxy)methyl)benzonitrile] | ≤ 1 nM | ≤ 100 nM |  |

Reference: US20150344485A1, “BICYCLIC PYRIMIDONE COMPOUNDS AS INHIBITORS OF LP-PLA2” (GLAXOSMITHKLINE INTELLECTUAL PROPERTY DEVELOPMENT LIMITED, priority 2013, published 2015)
